We go through one compound from PMC4535450, “Two enzymes with redundant fructose bisphosphatase activity sustain gluconeogenesis and virulence in Mycobacterium tuberculosis” (Nature Communications, 2015).

The target of this assay is GLPX (Rv1099c) (Mycobacterium tuberculosis, UniProt P9WN21). It counts as biochemical.

Turning to `O=P(O)(O)OC[C@H]1OC(O)(COP(=O)(O)O)[C@@H](O)[C@@H]1O` (stereo partly shown) [fructose 1,6-bisphosphate], the “coupled spectrophotometric assay (phosphoglucoisomerase / G6P dehydrogenase, NAD)” value is “Expression of GLPX in ΔglpXΔgpm2 provided lithium-sensitive FBPase activity”.
